Measurements taken from the supplement of paper PMC12463676, “Small-molecule dissolution of stress granules by redox modulation benefits ALS models” (Nature Chemical Biology, 2025).

Each target was assayed with O=[As]([O-])(O)O.[K+] [potassium arsenate] (assay: thermal stability z-score vs DMSO; higher = more thermally stabilized by treatment). Conditions: HeLa; arsenate concentration 1 mM.
Procedure: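 Cellular thermal proteome profiling in HeLa cells treated with 1 mM arsenate for 1 h (DMSO pretreatment), heated to ten temperatures (37-66.3 °C). Soluble protein was quantified by TMT mass spectrometry relative to DMSO controls; the thermal stability score was transformed to a z-score; mean of n = 3 experiments.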
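Also: each temperature applied for 3 min, abundance score taken as mean log2 fold change at the two lowest temperatures, z-score obtained by mean subtraction and division by SD.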

UniProt Q5ZPR3, sequence (Q5ZPR3 whole entry): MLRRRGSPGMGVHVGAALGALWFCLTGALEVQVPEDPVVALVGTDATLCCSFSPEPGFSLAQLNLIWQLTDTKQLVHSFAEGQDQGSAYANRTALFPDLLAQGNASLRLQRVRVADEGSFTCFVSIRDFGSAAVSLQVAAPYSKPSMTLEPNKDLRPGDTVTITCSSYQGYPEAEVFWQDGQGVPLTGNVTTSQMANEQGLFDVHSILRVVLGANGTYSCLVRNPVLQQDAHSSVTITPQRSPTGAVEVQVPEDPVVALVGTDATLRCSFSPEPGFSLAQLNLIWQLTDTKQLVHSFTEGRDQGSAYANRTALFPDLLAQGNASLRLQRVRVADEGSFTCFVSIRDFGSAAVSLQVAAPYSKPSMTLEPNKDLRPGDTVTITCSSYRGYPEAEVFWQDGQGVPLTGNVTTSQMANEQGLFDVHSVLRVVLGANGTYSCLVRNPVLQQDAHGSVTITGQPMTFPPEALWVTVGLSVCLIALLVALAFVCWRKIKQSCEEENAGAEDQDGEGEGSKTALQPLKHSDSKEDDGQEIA
UniProt P51665, sequence (P51665 whole entry): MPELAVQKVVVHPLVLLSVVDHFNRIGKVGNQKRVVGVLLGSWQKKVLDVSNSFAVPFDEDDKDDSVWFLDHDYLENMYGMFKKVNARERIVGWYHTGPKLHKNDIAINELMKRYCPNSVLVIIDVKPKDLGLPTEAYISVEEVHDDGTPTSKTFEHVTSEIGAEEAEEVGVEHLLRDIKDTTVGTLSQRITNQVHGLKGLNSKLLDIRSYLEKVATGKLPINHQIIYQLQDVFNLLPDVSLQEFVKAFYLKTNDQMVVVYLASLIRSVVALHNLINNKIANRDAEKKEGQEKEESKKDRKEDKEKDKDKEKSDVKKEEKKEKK
UniProt Q8IU85, sequence (Q8IU85 whole entry, looked up): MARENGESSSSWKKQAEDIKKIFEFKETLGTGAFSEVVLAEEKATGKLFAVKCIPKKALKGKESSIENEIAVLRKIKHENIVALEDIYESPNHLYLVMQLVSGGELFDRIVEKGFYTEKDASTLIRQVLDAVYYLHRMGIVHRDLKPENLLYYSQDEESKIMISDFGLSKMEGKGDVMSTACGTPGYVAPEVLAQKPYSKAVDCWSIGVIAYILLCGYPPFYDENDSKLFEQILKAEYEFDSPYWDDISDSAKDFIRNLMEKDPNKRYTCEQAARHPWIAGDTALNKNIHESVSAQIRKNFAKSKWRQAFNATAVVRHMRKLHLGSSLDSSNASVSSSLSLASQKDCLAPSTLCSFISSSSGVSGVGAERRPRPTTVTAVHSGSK
UniProt P56937, sequence (P56937 whole entry): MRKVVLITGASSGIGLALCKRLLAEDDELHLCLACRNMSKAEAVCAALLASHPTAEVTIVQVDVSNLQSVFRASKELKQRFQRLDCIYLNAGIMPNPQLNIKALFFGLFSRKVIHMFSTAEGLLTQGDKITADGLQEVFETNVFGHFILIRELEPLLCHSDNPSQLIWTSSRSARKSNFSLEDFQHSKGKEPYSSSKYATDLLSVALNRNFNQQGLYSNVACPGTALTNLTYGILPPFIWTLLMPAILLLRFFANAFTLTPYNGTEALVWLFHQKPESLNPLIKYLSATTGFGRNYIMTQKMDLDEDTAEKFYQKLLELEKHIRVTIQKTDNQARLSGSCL
UniProt Q9NRC1, sequence (Q9NRC1 whole entry): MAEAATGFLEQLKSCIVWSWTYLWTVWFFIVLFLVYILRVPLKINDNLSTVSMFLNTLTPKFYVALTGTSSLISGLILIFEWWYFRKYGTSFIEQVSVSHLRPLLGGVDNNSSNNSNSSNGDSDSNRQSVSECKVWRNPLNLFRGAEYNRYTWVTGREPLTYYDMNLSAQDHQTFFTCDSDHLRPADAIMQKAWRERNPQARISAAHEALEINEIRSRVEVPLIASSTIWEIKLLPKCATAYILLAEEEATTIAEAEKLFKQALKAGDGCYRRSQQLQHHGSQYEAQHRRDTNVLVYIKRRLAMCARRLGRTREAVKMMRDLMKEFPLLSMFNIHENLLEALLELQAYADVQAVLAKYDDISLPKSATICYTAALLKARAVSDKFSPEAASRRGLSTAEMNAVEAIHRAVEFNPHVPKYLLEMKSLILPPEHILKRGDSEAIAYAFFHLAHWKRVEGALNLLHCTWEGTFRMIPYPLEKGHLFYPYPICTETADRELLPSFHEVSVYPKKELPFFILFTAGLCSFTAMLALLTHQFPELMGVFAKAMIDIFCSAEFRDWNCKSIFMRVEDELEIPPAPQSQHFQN
UniProt Q9H0R6, sequence (Q9H0R6 whole entry): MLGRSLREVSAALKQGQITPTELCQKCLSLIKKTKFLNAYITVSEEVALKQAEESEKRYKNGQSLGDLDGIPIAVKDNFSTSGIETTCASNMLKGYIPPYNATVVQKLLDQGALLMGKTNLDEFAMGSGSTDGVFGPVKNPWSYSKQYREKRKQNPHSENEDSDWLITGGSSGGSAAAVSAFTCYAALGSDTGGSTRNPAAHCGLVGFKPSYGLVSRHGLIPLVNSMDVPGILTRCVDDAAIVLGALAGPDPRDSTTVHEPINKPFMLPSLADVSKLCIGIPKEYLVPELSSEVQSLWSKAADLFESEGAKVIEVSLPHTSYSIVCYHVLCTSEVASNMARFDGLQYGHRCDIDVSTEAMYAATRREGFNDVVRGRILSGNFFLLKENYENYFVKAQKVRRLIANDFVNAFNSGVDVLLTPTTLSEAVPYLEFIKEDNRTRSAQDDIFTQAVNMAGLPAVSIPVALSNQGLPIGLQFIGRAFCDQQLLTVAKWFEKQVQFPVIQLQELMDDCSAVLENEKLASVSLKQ
UniProt P61956, sequence (P61956 whole entry): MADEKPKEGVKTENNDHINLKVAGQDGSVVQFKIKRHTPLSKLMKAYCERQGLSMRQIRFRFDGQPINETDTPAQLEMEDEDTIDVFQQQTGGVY
UniProt Q7Z739, sequence (Q7Z739 whole entry): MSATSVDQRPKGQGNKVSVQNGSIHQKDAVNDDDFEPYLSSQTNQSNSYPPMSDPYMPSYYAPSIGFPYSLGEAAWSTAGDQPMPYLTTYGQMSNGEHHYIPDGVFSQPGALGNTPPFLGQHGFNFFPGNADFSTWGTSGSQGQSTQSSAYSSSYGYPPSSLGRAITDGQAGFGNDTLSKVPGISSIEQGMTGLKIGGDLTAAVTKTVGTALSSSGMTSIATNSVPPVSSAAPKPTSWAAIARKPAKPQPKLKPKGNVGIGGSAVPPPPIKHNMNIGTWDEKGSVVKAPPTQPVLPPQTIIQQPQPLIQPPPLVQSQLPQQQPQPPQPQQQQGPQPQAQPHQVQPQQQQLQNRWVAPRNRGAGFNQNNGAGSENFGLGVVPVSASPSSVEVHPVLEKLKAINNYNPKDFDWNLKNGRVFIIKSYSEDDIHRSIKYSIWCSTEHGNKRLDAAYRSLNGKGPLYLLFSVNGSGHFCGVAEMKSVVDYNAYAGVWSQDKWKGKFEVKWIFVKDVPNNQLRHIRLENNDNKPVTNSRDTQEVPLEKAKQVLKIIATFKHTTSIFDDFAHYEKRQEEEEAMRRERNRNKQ
UniProt Q9H4I3, sequence (Q9H4I3 whole entry): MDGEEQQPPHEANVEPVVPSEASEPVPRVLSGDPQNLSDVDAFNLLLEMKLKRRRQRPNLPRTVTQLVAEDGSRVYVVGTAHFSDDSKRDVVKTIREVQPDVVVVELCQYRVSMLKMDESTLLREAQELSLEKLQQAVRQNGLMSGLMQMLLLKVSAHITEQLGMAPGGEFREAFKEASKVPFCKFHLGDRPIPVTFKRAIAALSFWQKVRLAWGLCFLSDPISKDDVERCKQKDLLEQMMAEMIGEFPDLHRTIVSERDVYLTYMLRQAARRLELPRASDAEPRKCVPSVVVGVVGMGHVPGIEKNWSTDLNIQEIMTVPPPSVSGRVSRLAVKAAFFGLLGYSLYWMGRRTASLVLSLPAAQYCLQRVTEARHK
UniProt Q9BY50, sequence (Q9BY50 whole entry): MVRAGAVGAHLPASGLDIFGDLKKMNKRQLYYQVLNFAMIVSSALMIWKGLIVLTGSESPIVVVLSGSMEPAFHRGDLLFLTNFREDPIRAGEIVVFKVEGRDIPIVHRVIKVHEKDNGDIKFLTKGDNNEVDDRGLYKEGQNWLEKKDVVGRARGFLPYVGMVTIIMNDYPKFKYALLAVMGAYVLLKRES
UniProt P51151, sequence (P51151 whole entry): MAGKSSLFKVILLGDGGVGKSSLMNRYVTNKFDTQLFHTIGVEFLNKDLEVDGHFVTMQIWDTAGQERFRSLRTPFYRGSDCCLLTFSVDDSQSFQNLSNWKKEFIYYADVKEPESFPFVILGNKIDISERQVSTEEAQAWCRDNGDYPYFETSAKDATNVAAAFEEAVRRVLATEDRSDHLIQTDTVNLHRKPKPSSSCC
UniProt P41223, sequence (P41223 whole entry): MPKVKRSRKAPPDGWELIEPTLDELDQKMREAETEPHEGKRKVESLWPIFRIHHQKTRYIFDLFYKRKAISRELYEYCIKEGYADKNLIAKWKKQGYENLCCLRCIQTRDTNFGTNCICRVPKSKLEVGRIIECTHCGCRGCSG
UniProt O43583, sequence (O43583 whole entry): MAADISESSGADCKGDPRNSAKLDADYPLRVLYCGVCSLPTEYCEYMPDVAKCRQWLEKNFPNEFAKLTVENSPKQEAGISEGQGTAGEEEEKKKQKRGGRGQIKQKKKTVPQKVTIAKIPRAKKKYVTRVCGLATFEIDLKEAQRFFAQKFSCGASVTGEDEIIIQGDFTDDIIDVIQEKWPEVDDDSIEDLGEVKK
UniProt P48426, sequence (P48426 whole entry): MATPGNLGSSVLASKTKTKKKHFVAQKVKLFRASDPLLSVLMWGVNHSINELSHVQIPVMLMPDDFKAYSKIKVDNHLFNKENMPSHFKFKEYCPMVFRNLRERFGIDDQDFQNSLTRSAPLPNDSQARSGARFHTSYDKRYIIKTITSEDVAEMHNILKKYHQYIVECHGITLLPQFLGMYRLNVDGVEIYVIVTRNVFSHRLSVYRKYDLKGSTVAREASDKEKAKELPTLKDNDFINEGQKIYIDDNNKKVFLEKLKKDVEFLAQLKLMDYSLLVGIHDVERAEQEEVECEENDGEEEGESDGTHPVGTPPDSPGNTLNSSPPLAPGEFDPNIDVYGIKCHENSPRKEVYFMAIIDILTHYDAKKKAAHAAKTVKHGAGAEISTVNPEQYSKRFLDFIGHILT

Target | thermal stability z-score
MCC (UniProt P23508) | -0.0394
CD276 (UniProt Q5ZPR3) | 0.000316
TRABD (UniProt Q9H4I3) | -0.0912
RPN2 (UniProt P04844) | 0.141
BCAS3 (UniProt Q9H6U6) | -0.0972
AP2A2 (UniProt O94973) | -0.337
BCL9 (UniProt O00512) | 0.421
BUD31 (UniProt P41223) | -3.38
DSP (UniProt P15924) | -0.576
NFIB (UniProt O00712) | -0.0229
HSD17B7 (UniProt P56937) | 1.82
PDCD11 (UniProt Q14690) | -0.125
SEC11C (UniProt Q9BY50) | 0.222
ZNF579 (UniProt Q8NAF0) | 0.155
ST7 (UniProt Q9NRC1) | -1.16
CCDC6 (UniProt Q16204) | -0.505
MOB2 (UniProt Q70IA6) | 0.0529
DOCK10 (UniProt Q96BY6) | 0.0405
POLR2H (UniProt P52434) | -0.373
KPNA2 (UniProt P52292) | -0.353
DPH1 (UniProt Q9BZG8) | -1.29
PIP4K2A (UniProt P48426) | -0.102
COPS6 (UniProt Q7L5N1) | -0.236
SYNJ2 (UniProt O15056) | -0.0134

Target | thermal stability z-score
PSMD7 (UniProt P51665) | -0.475
NEGR1 (UniProt Q7Z3B1) | -0.617
CAMK1D (UniProt Q8IU85) | 0.553
RAB9A (UniProt P51151) | 0.801
QRSL1 (UniProt Q9H0R6) | 0.708
DENR (UniProt O43583) | -0.702
KYAT3 (UniProt Q6YP21) | -0.182
SUMO2 (UniProt P61956) | 0.306
NAA40 (UniProt Q86UY6) | 0.0387
ZNF346 (UniProt Q9UL40) | 0.04
YTHDF3 (UniProt Q7Z739) | 0.174
RHBDF2 (UniProt Q6PJF5) | 0.166
GCLM (UniProt P48507) | 2.05
RAB2A (UniProt P61019) | 0.296
SMAD2 (UniProt Q15796) | -1.26
GALNT1 (UniProt Q10472) | -0.187
NAA30 (UniProt Q147X3) | -0.43
ARID4B (UniProt Q4LE39) | -0.419
PLXNA2 (UniProt O75051) | -0.219
RC3H1 (UniProt Q5TC82) | -0.351
DDI2 (UniProt Q5TDH0) | -0.217
IFIT3 (UniProt O14879) | -0.0781
RRP1 (UniProt P56182) | 0.671
ARHGEF1 (UniProt Q92888) | 0.0617

Target | thermal stability z-score
AMPD2 (UniProt Q01433) | 0.172
MSMO1 (UniProt Q15800) | 0.343
ATP2B2 (UniProt Q01814) | 0.106
USF1 (UniProt P22415) | 0.149
GSE1 (UniProt Q14687) | -0.12
UBA5 (UniProt Q9GZZ9) | 0.622
NUDT19 (UniProt A8MXV4) | -0.208
SLAIN2 (UniProt Q9P270) | -0.0239
FAM207A (UniProt Q9NSI2) | 0.566
PELP1 (UniProt Q8IZL8) | 0.449
UBXN1 (UniProt Q04323) | -0.0349
NUP88 (UniProt Q99567) | 0.549
PNPLA4 (UniProt P41247) | 1.28
SLC5A3 (UniProt P53794) | -1.12
AAMDC (UniProt Q9H7C9) | 0.207
GGA3 (UniProt Q9NZ52) | -0.298
LARP7 (UniProt Q4G0J3) | 0.0679
OSBPL10 (UniProt Q9BXB5) | -1.41
POGZ (UniProt Q7Z3K3) | -0.422
DRAP1 (UniProt Q14919) | -0.503
UXT (UniProt Q9UBK9) | 0.352
GTF2A2 (UniProt P52657) | -0.823
SNRPA1 (UniProt P09661) | 0.474

Each target was assayed with NC(=O)CCCCC1CCSS1 [lipoamide] in the same assay as above. Conditions: HeLa; lipoamide concentration 100 µM; arsenate co-treatment: 1 mM arsenate 1 h.
Procedure: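 Cellular thermal proteome profiling in HeLa cells. Cells were treated with 100 µM lipoamide for 1 h, with or without 1 mM arsenate for a further 1 h, then heated to ten temperatures (37-66.3 °C), and soluble protein was quantified by TMT mass spectrometry relative to 0.1% DMSO controls. The thermal stability score (sum of log2 fold changes minus the abundance score) was transformed to a z-score; mean of n = 3 experiments.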

Target | thermal stability z-score
MCC (UniProt P23508) | -0.1
CD276 (UniProt Q5ZPR3) | 0.196
TRABD (UniProt Q9H4I3) | 0.366
RPN2 (UniProt P04844) | -2.41
BCAS3 (UniProt Q9H6U6) | -0.0897
AP2A2 (UniProt O94973) | -0.0644
BCL9 (UniProt O00512) | 0.363
BUD31 (UniProt P41223) | 0.0866
DSP (UniProt P15924) | 3.08
NFIB (UniProt O00712) | -1.17
HSD17B7 (UniProt P56937) | 0.202
PDCD11 (UniProt Q14690) | -0.0446
SEC11C (UniProt Q9BY50) | -0.973
ZNF579 (UniProt Q8NAF0) | -0.34
ST7 (UniProt Q9NRC1) | -0.0918
CCDC6 (UniProt Q16204) | -0.497
MOB2 (UniProt Q70IA6) | -0.235
DOCK10 (UniProt Q96BY6) | -0.106

Target | thermal stability z-score
POLR2H (UniProt P52434) | 0.98
KPNA2 (UniProt P52292) | 0.22
DPH1 (UniProt Q9BZG8) | -0.233
PIP4K2A (UniProt P48426) | 0.195
COPS6 (UniProt Q7L5N1) | 0.0852
SYNJ2 (UniProt O15056) | 0.0806
PSMD7 (UniProt P51665) | -0.802
NEGR1 (UniProt Q7Z3B1) | 0.758
CAMK1D (UniProt Q8IU85) | -0.513
RAB9A (UniProt P51151) | 0.654
QRSL1 (UniProt Q9H0R6) | -0.401
DENR (UniProt O43583) | 0.109
KYAT3 (UniProt Q6YP21) | -0.0731
SUMO2 (UniProt P61956) | 1.1
NAA40 (UniProt Q86UY6) | -0.126
ZNF346 (UniProt Q9UL40) | -0.17
YTHDF3 (UniProt Q7Z739) | -0.486
